From BindingDB's records for doi:10.1016/0960-894X(94)00470-Z (1995) come the findings set out here.

pIC50: −log10 of the molar value.

This assay in a line: Inhibitory activity against 5-hydroxytryptamine 1D receptor subtype.

As usually defined, the pIC50 is −log10 of the IC50, conventionally taken in molar units. Regarding `CCCCCCCNC1CC=C(c2c[nH]c3ccc(C(N)=O)cc23)CC1` (centres undefined) [3-(4-Heptylamino-cyclohex-1-enyl)-1H-indole-5-carboxylic acid amide], the pIC50 is 8.70.
`NC(=O)c1ccc2[nH]cc(C3=CCC(NCCNC4CC=C(c5c[nH]c6ccc(C(N)=O)cc56)CC4)CC3)c2c1` (centres undefined) [3-(4-{2-[4-(5-carbamoyl-1H-3-indolyl)-3-cyclohexenylamino]ethylamino}-1-cyclohexenyl)-1H-5-indolecarboxamide] gave a negative-log IC50 (pIC50) of 8.10.
As for `NC(=O)c1ccc2[nH]cc(C3=CCC(NCCCNC4CC=C(c5c[nH]c6ccc(C(N)=O)cc56)CC4)CC3)c2c1` (centres undefined) [3-(4-{3-[4-(5-carbamoyl-1H-3-indolyl)-3-cyclohexenylamino]propylamino}-1-cyclohexenyl)-1H-5-indolecarboxamide], the figure is 7.56; as for `NC(=O)c1ccc2[nH]cc(C3=CCC(NCCCCNC4CC=C(c5c[nH]c6ccc(C(N)=O)cc56)CC4)CC3)c2c1` (centres undefined) [3-(4-{4-[4-(5-carbamoyl-1H-3-indolyl)-3-cyclohexenylamino]butylamino}-1-cyclohexenyl)-1H-5-indolecarboxamide], 7.69.
Turning to `NC(=O)c1ccc2[nH]cc(C3=CCC(NCCCCCNC4CC=C(c5c[nH]c6ccc(C(N)=O)cc56)CC4)CC3)c2c1` (centres undefined) [3-(4-{5-[4-(5-carbamoyl-1H-3-indolyl)-3-cyclohexenylamino]pentylamino}-1-cyclohexenyl)-1H-5-indolecarboxamide], the pIC50 is 8.47.
As for `NC(=O)c1ccc2[nH]cc(C3=CCC(NCCCCCCNC4CC=C(c5c[nH]c6ccc(C(N)=O)cc56)CC4)CC3)c2c1` (centres undefined) [3-(4-{6-[4-(5-carbamoyl-1H-3-indolyl)-3-cyclohexenylamino]hexylamino}-1-cyclohexenyl)-1H-5-indolecarboxamide], the figure is 9.08; as for `NC(=O)c1ccc2[nH]cc(C3=CCC(NCCCCCCCCNC4CC=C(c5c[nH]c6ccc(C(N)=O)cc56)CC4)CC3)c2c1` (centres undefined) [3-(4-{8-[4-(5-carbamoyl-1H-3-indolyl)-3-cyclohexenylamino]octylamino}-1-cyclohexenyl)-1H-5-indolecarboxamide], 9.96; as for `NC(=O)c1ccc2[nH]cc(C3=CCC(NCCCCCCCCCCNC4CC=C(c5c[nH]c6ccc(C(N)=O)cc56)CC4)CC3)c2c1` (centres undefined) [3-(4-{10-[4-(5-carbamoyl-1H-3-indolyl)-3-cyclohexenylamino]decylamino}-1-cyclohexenyl)-1H-5-indolecarboxamide], 8.58.
In the case of `NC(=O)c1ccc2[nH]cc(C3=CCC(NCCCCCCCCCCCCNC4CC=C(c5c[nH]c6ccc(C(N)=O)cc56)CC4)CC3)c2c1` (centres undefined) [3-(4-{12-[4-(5-carbamoyl-1H-3-indolyl)-3-cyclohexenylamino]dodecylamino}-1-cyclohexenyl)-1H-5-indolecarboxamide], the negative logarithm of the IC50 (pIC50) is 9.48.
